Measurements taken from patent US20130344139A1, “METHOD OF REDUCING CONTACT LENS INTOLERANCE WITH NON-DRYING ANTIHISTAMINES” (priority 2005, published 2013).
Each block holds one compound with its values, some of them ahead of it.

Key:
[1] = tested on: muscarinic receptors (M1-M5); assay: Muscarinic receptor signaling, statements for M1-M5 together; details: for inhibition of muscarinic receptor signaling (in words): stimulation with 500 nM acetylcholine; for IC50 at muscarinic receptors (in words): lack of anticholinergic properties
Description: (§1) C6 rat glioma and CHO-K1 (Chinese hamster ovary) cells were obtained from the American Type Culture Collection (ATCC, Manassas, Va.). […] Recombinant cell lines stably expressing independently each of the five human muscarinic receptors (M1, M2, M3, M4 or M5) were established by transfecting C6 rat glioma cells with the plasmid pcDNA3.1(+) containing the DNA sequence encoding the muscarinic receptor subtypes. Moreover, two of the muscarinic receptor subtypes (M2 and M4) that signal through the Gαi protein were expressed in C6 cells that also expressed a functional chimeric Gq/i protein allowing these receptors to signal via calcium mobilization.

[2] = target: human muscarinic receptor M3 (Homo sapiens, UniProt P20309); assay: Muscarinic receptor potency, C6 cells expressing recombinant M3
Description: as §1

[3] = target: T1, human muscarinic receptor M5 (Homo sapiens, UniProt P08912); assay: Muscarinic receptor potency, C6 cells expressing recombinant M5
T1 sequence (P08912 1-532): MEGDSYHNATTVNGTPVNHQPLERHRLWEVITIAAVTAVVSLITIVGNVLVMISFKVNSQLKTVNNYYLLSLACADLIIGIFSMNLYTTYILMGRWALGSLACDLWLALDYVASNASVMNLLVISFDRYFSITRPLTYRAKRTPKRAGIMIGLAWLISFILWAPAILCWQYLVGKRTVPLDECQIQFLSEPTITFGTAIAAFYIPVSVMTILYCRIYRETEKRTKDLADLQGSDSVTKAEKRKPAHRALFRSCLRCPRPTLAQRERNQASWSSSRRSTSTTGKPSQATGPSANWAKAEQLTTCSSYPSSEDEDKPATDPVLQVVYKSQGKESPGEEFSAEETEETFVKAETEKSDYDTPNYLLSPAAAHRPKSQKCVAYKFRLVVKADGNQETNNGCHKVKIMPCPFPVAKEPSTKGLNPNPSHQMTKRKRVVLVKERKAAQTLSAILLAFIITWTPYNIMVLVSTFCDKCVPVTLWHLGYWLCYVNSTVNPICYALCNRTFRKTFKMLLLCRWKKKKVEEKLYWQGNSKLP
Description: as §1

[4] = target: T2, human muscarinic receptor M4 (Homo sapiens, UniProt P08173); assay: Muscarinic receptor potency, C6 cells expressing recombinant M4 (chimeric Gq/i)
T2 sequence (P08173 1-479): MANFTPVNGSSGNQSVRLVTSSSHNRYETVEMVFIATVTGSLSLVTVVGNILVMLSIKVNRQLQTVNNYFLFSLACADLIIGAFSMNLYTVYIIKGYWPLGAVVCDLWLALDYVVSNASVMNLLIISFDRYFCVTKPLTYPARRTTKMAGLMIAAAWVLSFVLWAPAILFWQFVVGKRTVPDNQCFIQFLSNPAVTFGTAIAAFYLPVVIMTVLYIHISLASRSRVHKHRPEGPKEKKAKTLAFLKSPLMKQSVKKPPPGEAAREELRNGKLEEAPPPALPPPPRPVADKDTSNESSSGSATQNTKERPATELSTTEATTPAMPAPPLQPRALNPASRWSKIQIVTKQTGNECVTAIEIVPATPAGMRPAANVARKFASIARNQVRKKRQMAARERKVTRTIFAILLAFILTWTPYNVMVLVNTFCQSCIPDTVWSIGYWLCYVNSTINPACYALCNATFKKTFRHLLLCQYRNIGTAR
Description: as §1

[5] = target: endogenous M3 receptor (1321N1) (Homo sapiens, UniProt P20309)
[6] = target: human histamine H1 receptor (Homo sapiens, UniProt P35367); assay: H1 receptor potency: inhibition of histamine stimulation in CHO-K1 H1 cells
Description: as §1
Dose response curves were generated.

healthy individuals = details: systemic antihistamines; increased corneal and conjunctival staining, decreased TFBUT, increased ocular discomfort; cited from earlier work
C57BL6 mice = assay: Effect of topical epinastine and olopatadine on tear volume in mice (phenol red cotton thread); type: in vivo, mouse; details: for tear volume compared with untreated group: olopatadine: 15 min and 45 min (P<0.05); for overall effect on tear volume / tear secretion (conclusion): topical, mice
Description: After two and four days of treatment, tear volume measurements were made with a phenol red impregnated cotton thread (Zone-Quick, Menicon, San Mateo, Calif.) 15, 45, 90, 120 and 240 min after the last instillation of the drug. A baseline tear measurement was performed before initiation of drug therapy. The untreated group had tear volume measurements done at the same time points. The length of tear wetting on the cotton thread was measured with a Nikon SMZ1500 microscope using MetaVue© software. A standard curve of cotton thread uptake was made using a glass micropipette with a known volume of a basic solution. Mouse tear volumes were calculated using regression analysis calculated by Microsoft® Excel. ANOVA with Tukey's Multiple Comparison Test was used for statistical analysis using GraphPad Prism® software.

[7] = tested on: contact lens-wearing subjects; assay: Effect of topical epinastine on contact lens-wearing, contact lens intolerant subjects; type: in vivo
Text: This was a multi-center, open-label, randomized study that compared (a) epinastine 0.05% ophthalmic solution (ELESTAT®, Inspire Pharmaceuticals, Inc., Durham, N.C.) plus rewetting drops (Walgreens Rewetting Drops, Walgreens, Deerfield Ill.) with (b) rewetting drops alone. The subjects wore contact lenses, but were contact lens intolerant. The study started during the spring allergy season because seasonal allergic conjunctivitis may exacerbate the symptoms of contact lens intolerance.
146 subjects had 3 clinic visits over a 2-week period. The first was the screening visit to determine eligibility. Following that, subjects completed a daily diary card to assess compliance and capture baseline values during a 5-7 day run-in period with rewetting drops. At the next visit, each subject was dispensed a new pair of contact lenses and randomly assigned to receive either (a) epinastine 0.05% ophthalmic solution BID (twice a day) plus rewetting drops (75 subjects), or (b) rewetting drops only as needed, but at least twice a day (71 subjects), for a 5-7 day treatment period. During the treatment period, subjects recorded the length of time that contact lens wear was comfortable, the total time of wear, ocular itch, overall ocular comfort, and use of rewetting drops. Subjects receiving epinastine were instructed to remove contact lenses prior to instillation, allow at least 10 minutes before reinsertion, and allow 15 minutes before administering rewetting drops. Each instillation was to occur 8-12 hours after the previous one, with the evening application coming after removal of lenses for the day. The final visit came after the 5-7 day treatment period and allowed collection of the data and unused study medication.
Ocular comfort was scored on a scale of 0-4, with 0=very comfortable, 1=somewhat comfortable, 2=mildly uncomfortable, 3=moderately uncomfortable, and 4=very uncomfortable.
Ocular itch was scored on a scale of 0-4, with 0=none, 1=mild, 2=moderate, 3=severe, and 4=extremely severe.
Baseline values presented are the average of all entries recorded during the run-in phase of the study. P values are based on an ANCOVA model that included the treatment, the site, and the baseline value. Values for Day 1 are not included in the analysis for contact lens wear time, ocular itching, ocular comfort, and rewetting drop usage because they were a mixture of run-in and treatment period values.

allergic conjunctivitis = details: in vivo; cited from earlier work
[8] = target: T3, human muscarinic receptor M2 (Homo sapiens, UniProt P08172); assay: Muscarinic receptor potency, C6 cells expressing recombinant M2 (chimeric Gq/i)
T3 sequence (P08172 1-466): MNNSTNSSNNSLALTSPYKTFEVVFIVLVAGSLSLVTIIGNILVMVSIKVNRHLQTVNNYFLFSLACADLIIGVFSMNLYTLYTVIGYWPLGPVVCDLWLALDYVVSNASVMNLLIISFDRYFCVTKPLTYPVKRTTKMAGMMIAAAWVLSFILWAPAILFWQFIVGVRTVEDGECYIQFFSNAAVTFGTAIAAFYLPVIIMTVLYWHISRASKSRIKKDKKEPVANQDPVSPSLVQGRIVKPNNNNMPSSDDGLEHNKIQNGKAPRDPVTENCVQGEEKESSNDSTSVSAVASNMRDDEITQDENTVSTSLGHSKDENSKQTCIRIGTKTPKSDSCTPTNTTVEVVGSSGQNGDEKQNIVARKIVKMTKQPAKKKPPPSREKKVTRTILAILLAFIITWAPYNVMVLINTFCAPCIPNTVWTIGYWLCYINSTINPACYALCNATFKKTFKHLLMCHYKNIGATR
Description: as §1

human subjects = assay: Ocular drying effect of topical epinastine and systemic loratadine, crossover study (fluorophotometry, staining, TFBUT); details: after 4 days of treatment
[9] = target: T4, human muscarinic receptor M1 (Homo sapiens, UniProt P11229); assay: cell-based
T4 sequence (P11229 1-460): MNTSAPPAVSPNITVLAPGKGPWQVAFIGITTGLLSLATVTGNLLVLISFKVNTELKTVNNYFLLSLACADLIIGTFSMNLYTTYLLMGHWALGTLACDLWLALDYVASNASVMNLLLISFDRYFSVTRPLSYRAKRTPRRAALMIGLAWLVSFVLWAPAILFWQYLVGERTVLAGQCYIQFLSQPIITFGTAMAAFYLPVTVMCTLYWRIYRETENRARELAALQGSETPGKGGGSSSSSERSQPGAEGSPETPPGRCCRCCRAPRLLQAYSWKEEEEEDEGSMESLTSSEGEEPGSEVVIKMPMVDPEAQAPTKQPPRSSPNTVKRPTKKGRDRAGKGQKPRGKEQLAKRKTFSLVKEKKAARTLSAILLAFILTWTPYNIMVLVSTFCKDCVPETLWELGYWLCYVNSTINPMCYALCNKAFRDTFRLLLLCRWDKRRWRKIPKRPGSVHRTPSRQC
Description: as §1

[10] = average during treatment period

Sequence of human histamine H1 receptor (P35367 whole entry): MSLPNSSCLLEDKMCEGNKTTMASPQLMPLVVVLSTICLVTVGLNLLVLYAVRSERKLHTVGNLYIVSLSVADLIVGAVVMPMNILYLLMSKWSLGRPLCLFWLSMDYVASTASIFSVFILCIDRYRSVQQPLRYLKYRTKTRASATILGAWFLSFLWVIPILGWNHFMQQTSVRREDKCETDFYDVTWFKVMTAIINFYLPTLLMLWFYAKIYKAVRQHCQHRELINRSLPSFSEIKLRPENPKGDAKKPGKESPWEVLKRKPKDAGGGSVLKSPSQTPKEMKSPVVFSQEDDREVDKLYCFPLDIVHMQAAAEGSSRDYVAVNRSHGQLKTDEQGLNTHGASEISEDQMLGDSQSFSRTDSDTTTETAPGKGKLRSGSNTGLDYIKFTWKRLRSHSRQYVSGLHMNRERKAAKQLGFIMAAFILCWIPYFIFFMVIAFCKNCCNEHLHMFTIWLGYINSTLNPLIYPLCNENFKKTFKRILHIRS
Sequence of endogenous M3 receptor (1321N1) (P20309 whole entry): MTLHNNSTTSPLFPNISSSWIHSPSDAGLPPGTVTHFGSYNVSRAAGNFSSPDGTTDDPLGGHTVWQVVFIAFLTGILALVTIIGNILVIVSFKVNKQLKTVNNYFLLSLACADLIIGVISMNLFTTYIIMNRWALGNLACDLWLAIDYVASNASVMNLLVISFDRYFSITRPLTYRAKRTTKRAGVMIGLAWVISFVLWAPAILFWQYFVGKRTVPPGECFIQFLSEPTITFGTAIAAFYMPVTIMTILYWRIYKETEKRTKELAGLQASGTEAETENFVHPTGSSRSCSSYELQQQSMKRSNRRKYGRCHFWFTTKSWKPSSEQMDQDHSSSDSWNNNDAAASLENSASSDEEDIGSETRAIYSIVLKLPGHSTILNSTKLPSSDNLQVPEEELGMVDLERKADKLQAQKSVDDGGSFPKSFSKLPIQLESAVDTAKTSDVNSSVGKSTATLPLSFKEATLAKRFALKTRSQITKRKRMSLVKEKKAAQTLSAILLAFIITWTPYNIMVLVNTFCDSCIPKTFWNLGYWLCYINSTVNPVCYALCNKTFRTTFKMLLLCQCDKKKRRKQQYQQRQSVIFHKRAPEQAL
Sequence of human muscarinic receptor M3 (P20309 whole entry): as above

- IC50 [2]: 16.8 µM
- IC50 [3]: 3.26 µM
- IC50 [4]: 8.11 µM
- IC50 [5]: 10.2 µM
SMILES: CN1CCCC(n2nc(Cc3ccc(Cl)cc3)c3ccccc3c2=O)CC1 (stereo not shown) [azelastine]
- inhibition of muscarinic receptor signaling (in words) [1]: inhibited muscarinic receptor signaling in a dose-dependent manner

- IC50 at muscarinic receptors (in words) [1]: could not be calculated
- IC50 [6]: 0.165 ± 0.044 µM
SMILES: CCOCCn1c(C2CCN(CCc3ccc(C(C)(C)C(=O)O)cc3)CC2)nc2ccccc21 [bilastine]

SMILES: O=C(O)COCCN1CCN(C(c2ccccc2)c2ccc(Cl)cc2)CC1 (stereo not shown) [cetirizine]
- signs and symptoms associated with ocular dryness (healthy individuals): induced signs and symptoms associated with ocular dryness
- IC50 at muscarinic receptors (in words) [1]: could not be calculated

SMILES: NC1=NCC2c3ccccc3Cc3ccccc3N12 (stereo not shown) [epinastine, 3-amino-9,13b-dihydro-1H-dibenz[c,f]-imidazo[5,1-a]azepine]
- mean tear volume compared with olopatadine-treated group (C57BL6 mice; after 2 days of treatment, 1 μL twice a day on ocular surface, 15, 45, 90 and 240 minutes, significant at 45 min (P<0.001)): higher mean tear volumes
- tear volume compared with untreated group (C57BL6 mice; after 2 days of treatment): increased production of tears over the untreated group, but the difference was not statistically significant
- tear volume compared with olopatadine (C57BL6 mice; after 4 days of treatment, significant at 45 min (p<0.05)): volumes were higher at all time points
- overall effect on tear volume / tear secretion (conclusion) (C57BL6 mice): not found to inhibit tear secretion, but rather increased tear production
- Frequency of rewetting drop use, mean change from baseline [7, 10]: −0.55
- Total contact lens wear, mean change from baseline [7, 10]: 0.35 h
- Comfortable contact lens wear, mean change from baseline ([7]; average during treatment period (5-7 days)): 1.33 h
- average use of rewetting drops over the entire treatment period ([7]; in vivo): 2.79 uses per day
- mean overall eye comfort over the entire treatment period ([7]; score 0-4 (0=very comfortable, 4=very uncomfortable)): 1.43
- Overall eye comfort, mean change from baseline ([7]; score 0-4 (0=very comfortable, 4=very uncomfortable), average during treatment period): −0.48
- average ocular itch score over the entire treatment period ([7]; score on a scale of 0-4): 1.11
- Ocular itch, mean change from baseline ([7]; score on a scale of 0-4, average during treatment period): −0.54
- average total wearing time over the treatment period ([7]; treatment period 5-7 days): 13.22 h
- comfortable wear time averaged over the treatment period ([7]; treatment period 5-7 days): 9.21 h
- redness and itching associated with allergic conjunctivitis (allergic conjunctivitis): reduces redness and itching
- IC50 at muscarinic receptors (in words) [1]: could not be calculated
- IC50 [6]: 0.019 ± 0.003 µM

- IC50 [3]: 0.138 µM
- IC50 [8]: 0.209 µM
- IC50 [4]: 0.561 µM
SMILES: CN1CCC(=C2c3ccccc3CC(=O)c3sccc32)CC1 [ketotifen]

SMILES: CCOC(=O)N1CCC(=C2c3ccc(Cl)cc3CCc3cccnc32)CC1 [loratadine]
- signs and symptoms associated with ocular dryness (healthy individuals): induced signs and symptoms associated with ocular dryness
- corneal and conjunctival staining, increase (human subjects): 22%
- mean TFBUT (tear film break-up time), decrease (human subjects): 22%
- tear flow, decrease (human subjects): 35%
- tear volume, decrease (human subjects): 34%

SMILES: CN(C)CC/C=C1/c2ccccc2COc2ccc(CC(=O)O)cc21 [olopatadine]
- tear volume compared with untreated group (C57BL6 mice; after 2 days of treatment): untreated group also had a statistically higher tear volume than the olopatadine group
- overall effect on tear volume / tear secretion (conclusion) (C57BL6 mice): significant decrease in tear volume
- IC50 [9]: 1.74 µM
- inhibition of muscarinic receptor signaling (in words) [1]: inhibited muscarinic receptor signaling in a dose-dependent manner
- IC50 [2]: 7.98 µM
- IC50 [3]: 10.7 µM
- IC50 [8]: 7.67 µM
- IC50 [4]: 13.1 µM
- IC50 [5]: 41.9 µM
